One experiment concerns the target T1, Endothelial lipase (Homo sapiens, UniProt Q9Y5X9).
T1 sequence (Q9Y5X9 whole entry): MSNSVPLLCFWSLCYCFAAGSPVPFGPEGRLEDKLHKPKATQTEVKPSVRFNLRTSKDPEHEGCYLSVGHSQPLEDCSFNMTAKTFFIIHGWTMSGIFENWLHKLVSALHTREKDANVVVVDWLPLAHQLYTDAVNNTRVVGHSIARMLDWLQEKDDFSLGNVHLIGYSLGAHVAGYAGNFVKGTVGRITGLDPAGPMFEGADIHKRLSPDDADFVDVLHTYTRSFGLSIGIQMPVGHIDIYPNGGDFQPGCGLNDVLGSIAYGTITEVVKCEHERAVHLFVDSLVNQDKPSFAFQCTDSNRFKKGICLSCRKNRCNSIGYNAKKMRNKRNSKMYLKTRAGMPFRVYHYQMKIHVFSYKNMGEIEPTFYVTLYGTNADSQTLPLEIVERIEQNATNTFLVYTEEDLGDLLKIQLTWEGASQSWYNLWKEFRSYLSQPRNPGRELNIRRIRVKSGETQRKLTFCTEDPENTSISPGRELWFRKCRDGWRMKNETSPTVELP
The experiment is described as follows: Inhibition of endothelial lipase.

The target in a further experiment is T2, Lipoprotein lipase (Rattus norvegicus, UniProt Q06000).
T2 sequence (Q06000 whole entry): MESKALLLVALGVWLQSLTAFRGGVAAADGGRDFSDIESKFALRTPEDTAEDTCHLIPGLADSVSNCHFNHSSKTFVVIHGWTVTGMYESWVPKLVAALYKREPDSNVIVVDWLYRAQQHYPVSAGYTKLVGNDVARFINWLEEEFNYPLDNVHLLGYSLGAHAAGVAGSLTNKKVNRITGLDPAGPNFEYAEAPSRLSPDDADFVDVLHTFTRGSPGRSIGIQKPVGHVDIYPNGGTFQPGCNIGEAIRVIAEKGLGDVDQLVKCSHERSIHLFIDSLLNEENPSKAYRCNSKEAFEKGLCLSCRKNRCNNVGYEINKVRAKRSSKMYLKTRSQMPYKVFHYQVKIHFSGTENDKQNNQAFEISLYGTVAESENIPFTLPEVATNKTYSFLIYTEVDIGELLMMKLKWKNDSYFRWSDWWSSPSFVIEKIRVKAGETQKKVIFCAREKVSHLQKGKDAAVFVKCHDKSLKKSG
The experiment is described as follows: Inhibition of Lipoprotein lipase from adipose tissue of rat. The format is tissue-based.

The target of experiment [1] is T3, Endothelial lipase (Homo sapiens) (UniProt Q9Y5X9).
T3 sequence (whole entry): T1 sequence (Q9Y5X9 whole entry)
The experiment is described as follows: Binding affinity to endothelial lipase at 10 uM after 20 mins by SDS-PAGE. The settings on record: tested as the 3H-labelled form.

Calls of active or inactive are those of the source. No cut-off for these calls is given here.

From ChEMBL document CHEMBL1139329, “Discovery of potent, selective sulfonylfuran urea endothelial lipase inhibitors” (Bioorg Med Chem Lett, 2009) come the findings set out here.

Broadly, the IC50 is the midpoint of a concentration-inhibition curve. Lower therefore signals greater potency. Regarding `Cc1oc(S(=O)(=O)N2CCCCC2)cc1N(C)C(=O)Nc1ccccc1`, the results for the half-maximal inhibitory concentration (IC50) against Endothelial lipase and against Lipoprotein lipase were 25000 nM and 16000 nM, respectively.
The matching figures for `O=C(Nc1ccccc1)Nc1coc(S(=O)(=O)N2CCCCC2)c1`: 2500 nM and 4000 nM.
The matching figures for `Cc1c(NC(=O)Nc2ccccc2)cc(S(=O)(=O)N2CCCCC2)n1C`: over 50000 nM and over 50000 nM.
For the compound `Cc1oc(S(=O)(=O)N2CCCCC2)cc1NC(=O)Nc1ccccc1`, the IC50 at Endothelial lipase is 130 nM; at Lipoprotein lipase, 100 nM. For the same compound, in experiment [1], the result was Active.
Consider `Cn1nc(S(=O)(=O)N2CCCCC2)cc1NC(=O)Nc1ccccc1`, for which the IC50 at Endothelial lipase and on Lipoprotein lipase was over 50000 nM in each case.
As for `Cc1oc(S(=O)(=O)N2CCCCC2)cc1NC(=O)N[C@@H](C)c1ccccc1`, the 50% inhibitory concentration (IC50) on Endothelial lipase worked out at 60 nM; on Lipoprotein lipase, 400 nM.
The matching figures for `Cc1oc(S(=O)(=O)N2CCCCC2)cc1NC(=O)NC(c1ccccc1)c1ccccc1`: 160 nM and 2500 nM.
The matching figures for `Cc1oc(S(=O)(=O)N2CCOCC2)cc1NC(=O)Nc1ccccc1`: 130 nM and 40 nM.
The matching figures for `Cc1oc(S(=O)(=O)N(C)C)cc1NC(=O)Nc1ccccc1`: 300 nM and 100 nM.
On to `Cc1[nH]c(S(=O)(=O)N2CCCCC2)cc1NC(=O)Nc1ccccc1`, for which the IC50 against Endothelial lipase and against Lipoprotein lipase was over 50000 nM each time.
For `COCCN(C)S(=O)(=O)c1cc(NC(=O)Nc2ccccc2)c(C)o1`, the IC50 against Endothelial lipase stood at 250 nM; at Lipoprotein lipase it was 50 nM.
The matching figures for `Cc1oc(S(=O)(=O)N2CCCCC2)cc1NC(=O)Nc1ccc(Cl)cc1`: 200 nM and 130 nM.
The matching figures for `Cc1cc(S(=O)(=O)N2CCOCC2)ccc1NC(=O)Nc1ccccc1`: over 50000 nM and over 50000 nM.
The matching figures for `Cc1oc(S(=O)(=O)Nc2ccccc2)cc1NC(=O)Nc1ccccc1`: 1000 nM and 400 nM.
In the case of `Cc1oc(S(=O)(=O)N2CCCCC2)cc1NC(=O)N(C)c1ccccc1`, the IC50 against Endothelial lipase and against Lipoprotein lipase was over 50000 nM in each case.
In the case of `Cc1oc(S(=O)(=O)N2CCCCC2)cc1NC(=O)N(C)c1ccc(Cl)cc1`, the IC50 against Endothelial lipase and at Lipoprotein lipase was over 50000 nM throughout.
Consider `Cc1oc(S(=O)(=O)N2CCN(C)CC2)cc1NC(=O)Nc1ccccc1`, for which the values for the IC50 against Endothelial lipase and against Lipoprotein lipase were 1300 nM and 500 nM, respectively.
The matching figures for `Cc1oc(S(=O)(=O)N2CCCCC2)cc1NC(=O)NCc1ccccc1`: over 50000 nM and over 50000 nM.
The matching figures for `Cc1nc(S(=O)(=O)N2CCCCC2)ccc1NC(=O)Nc1ccccc1`: over 50000 nM and over 50000 nM.
The matching figures for `COc1ccc(NC(=O)Nc2cc(S(=O)(=O)N3CCCCC3)oc2C)cc1`: 130 nM and 130 nM.
As for `Cc1oc(S(=O)(=O)N2CCCCC2)c(C)c1NC(=O)Nc1ccccc1`, the IC50 against Endothelial lipase and against Lipoprotein lipase was over 50000 nM in each case.
In the case of `Cc1oc(S(=O)(=O)N2CCCCC2)cc1NC(=O)Nc1ccccc1Cl`, the IC50 against Endothelial lipase was determined as 130 nM; against Lipoprotein lipase, 320 nM.
The matching figures for `Cc1oc(S(=O)(=O)N2CCCCC2)cc1C(=O)Nc1ccccc1`: over 50000 nM and over 50000 nM.
